Test results taken from patent US20040229933A1, “Treatment of hypertension” (Pfizer Inc, priority 2003, published 2004).
Ends that are not written are not given here.

Assays:
GPR54 = GPR54 (Homo sapiens, UniProt Q969F8); conditions: cited from earlier work
rat aortic rings = test: Isolated rat aorta assay (organ bath, aortic rings); conditions: organ bath system
Method: Segments of endothelium intact rat aorta were trim cleaned of fat and surrounding connective tissues and aortic rings strung up in 5 ml organ baths and perfused with oxygenated modified Kreb's solution (118 mM NaCl, 4.7 mM KCl, 25 mM NaHCO3, 11.1 mM glucose, 1.18 mM KH2PO4, 1.18 mM MgSO4 and 2mM CaCl2). Following an equilibration period of approximately 60 min, tissues were challenged with 1 μM phenylephrine (PE). Following a stable response tissues were washed and the above dose of PE was repeated. Once the tissues reached a maximum response 1 μM acetylcholine was administered to determine the percentage of endothelium dependent relaxation. Tissues were washed and cumulative concentration response curves were constructed to Kiss-1 and urotensin-II for a comparison. […] The potential for Kiss-1 mediated vasorelaxation was assessed in aortic rings pre-constricted with 300 nM noradrenaline along with appropriate control tissues with no drug. Drug potency (EC50) and efficacy (Emax) was determined.
Rat aortic rings are set up as described before for measuring Kiss-1 potency and efficacy in a 5 ml organ bath set-up. The potency of antagonist can be determined by constructing a dose response curve to Kiss-1 in the presence of a single concentration of Kiss-1 antagonist or vehicle. […]

[1] = system: CHO cells transfected with GPR54; conditions: cited from earlier work

Chain of GPR54 (Q969F8 whole entry, species assumed): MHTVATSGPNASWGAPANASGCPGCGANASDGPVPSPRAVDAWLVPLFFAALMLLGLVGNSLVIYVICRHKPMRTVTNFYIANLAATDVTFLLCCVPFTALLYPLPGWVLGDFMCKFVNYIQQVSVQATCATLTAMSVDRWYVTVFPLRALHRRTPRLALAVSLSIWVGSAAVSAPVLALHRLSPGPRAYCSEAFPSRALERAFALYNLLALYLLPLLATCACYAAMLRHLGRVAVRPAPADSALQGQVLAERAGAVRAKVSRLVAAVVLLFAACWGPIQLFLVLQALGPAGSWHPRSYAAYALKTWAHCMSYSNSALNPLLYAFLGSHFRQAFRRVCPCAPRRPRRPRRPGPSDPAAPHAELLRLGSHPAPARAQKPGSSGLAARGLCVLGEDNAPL

Kiss-1 (40-54): C-terminal fragment of Kiss-1 (KDLPNYNWNSFGLRF-NH2; UniProt Q15726 107-121, looked up, fragment)
agonist activity at GPR54 (GPR54): potent agonists

Kiss-1 (45-54): C-terminal fragment of Kiss-1, derived from the 54 amino acid Kiss peptide sequence; Kiss-1 receptor agonist (YNWNSFGLRF-NH2; UniProt Q15726 112-121, looked up, fragment)
vasoconstriction (rat aortic rings): vasoconstriction

Kiss-1: carboxy-terminally amidated peptide with 54 amino acid residues, also called metastin, isolated from human placenta (GTSLSPPPESSGSPQQPGLSAPHSRQIPAPQGAVLVQREKDLPNYNWNSFGLRF-NH2; UniProt Q15726 68-121, looked up)
vasoconstriction (rat aortic rings): potent vasoconstrictor
agonist activity at GPR54 (GPR54): potent agonists
migration, chemotaxis and invasion [1]: inhibits migration, chemotaxis and invasion
